Experimental data: ChEMBL document CHEMBL1649565, “Besifloxacin, a novel fluoroquinolone, has broad-spectrum in vitro activity against aerobic and anaerobic bacteria” (Antimicrob Agents Chemother, 2009)
The source made the active and inactive calls. The calls are words filed in the database; no cut-off is given here.

Key:
[1] = test system: Klebsiella pneumoniae; assay: Antibacterial activity against Klebsiella pneumoniae assessed as percent susceptible isolates by CLSI M7-A7 method; assay type: functional
[2] = test system: Staphylococcus warneri; assay: Antibacterial activity against Staphylococcus warneri assessed as percent susceptible isolates by CLSI M100-S18 method; assay type: functional
[3] = test system: Staphylococcus saprophyticus; assay: Antibacterial activity against Staphylococcus saprophyticus by CLSI M100-S18 method; assay type: functional
[4] = test system: Stenotrophomonas maltophilia; assay: Antibacterial activity against levofloxacin-susceptible Stenotrophomonas maltophilia by CLSI M7-A7 method; assay type: functional
[5] = test system: Streptococcus agalactiae; assay: Antibacterial activity against Streptococcus agalactiae by CLSI M100-S18 method; assay type: functional
[6] = test system: Staphylococcus aureus; assay: Antibacterial activity against ciprofloxacin-susceptible and methicillin-resistant Staphylococcus aureus assessed as percent susceptible isolates by CLSI M100-S18 method; assay type: functional
[7] = test system: Moraxella catarrhalis; assay: Antibacterial activity against Moraxella catarrhalis by CLSI M7-A7 method; assay type: functional
[8] = test system: Staphylococcus epidermidis
[9] = test system: Staphylococcus epidermidis; assay: Antibacterial activity against non-ciprofloxacin-susceptible and methicillin-susceptible Staphylococcus epidermidis by CLSI M100-S18 method; assay type: functional
[10] = test system: Morganella morganii; assay: Antibacterial activity against Morganella morganii by CLSI M7-A7 method; assay type: functional
[11] = test system: Haemophilus influenzae; assay: Antibacterial activity against ciprofloxacin-susceptible Haemophilus influenzae by CLSI M7-A7 method; assay type: functional
[12] = test system: Streptococcus sanguinis; assay: Antibacterial activity against Streptococcus sanguinis by CLSI M100-S18 method; assay type: functional
[13] = test system: Pseudomonas aeruginosa; assay: Antibacterial activity against ciprofloxacin-susceptible Pseudomonas aeruginosa by CLSI M7-A7 method; assay type: functional
[14] = test system: Streptococcus intermedius; assay: Antibacterial activity against Streptococcus intermedius by CLSI M100-S18 method; assay type: functional
[15] = test system: Acinetobacter baumannii; assay: Antibacterial activity against Acinetobacter baumannii by CLSI M7-A7 method; assay type: functional
[16] = test system: Staphylococcus warneri; assay: Antibacterial activity against Staphylococcus warneri by CLSI M100-S18 method; assay type: functional
[17] = test system: Staphylococcus haemolyticus; assay: Antibacterial activity against Staphylococcus haemolyticus by CLSI M100-S18 method; assay type: functional
[18] = test system: Klebsiella aerogenes; assay: Antibacterial activity against Enterobacter aerogenes by CLSI M7-A7 method; assay type: functional
[19] = test system: Streptococcus salivarius; assay: Antibacterial activity against Streptococcus salivarius by CLSI M100-S18 method; assay type: functional
[20] = test system: Staphylococcus epidermidis; assay: Antibacterial activity against ciprofloxacin-susceptible and methicillin-resistant Staphylococcus epidermidis assessed as percent susceptible isolates by CLSI M100-S18 method; assay type: functional
[21] = test system: Proteus vulgaris; assay: Antibacterial activity against Proteus vulgaris assessed as percent susceptible isolates by CLSI M7-A7 method; assay type: functional
[22] = test system: Streptococcus pneumoniae; assay: Antibacterial activity against non-levofloxacin susceptible Streptococcus pneumoniae by CLSI M100-S18 method; assay type: functional
[23] = test system: Enterococcus faecium; assay: Antibacterial activity against vancomycin- resistant Enterococcus faecium by CLSI M100-S18 method; assay type: functional
[24] = test system: Proteus mirabilis; assay: Antibacterial activity against Proteus mirabilis assessed as percent susceptible isolates by CLSI M7-A7 method; assay type: functional
[25] = test system: Klebsiella aerogenes; assay: Antibacterial activity against Enterobacter aerogenes assessed as percent susceptible isolates by CLSI M7-A7 method; assay type: functional
[26] = test system: Staphylococcus haemolyticus; assay: Antibacterial activity against Staphylococcus haemolyticus assessed as percent susceptible isolates by CLSI M100-S18 method; assay type: functional
[27] = test system: Acinetobacter calcoaceticus; assay: Antibacterial activity against Acinetobacter calcoaceticus by CLSI M7-A7 method; assay type: functional
[28] = test system: Citrobacter freundii; assay: Antibacterial activity against Citrobacter freundii assessed as percent susceptible isolates by CLSI M7-A7 method; assay type: functional
[29] = test system: Streptococcus pneumoniae; assay: Antibacterial activity against non-levofloxacin susceptible Streptococcus pneumoniae assessed as percent susceptible isolates by CLSI M100-S18 method; assay type: functional
[30] = test system: Staphylococcus aureus; assay: Antibacterial activity against ciprofloxacin-susceptible and methicillin-resistant Staphylococcus aureus by CLSI M100-S18 method; assay type: functional
[31] = test system: Staphylococcus epidermidis; assay: Antibacterial activity against ciprofloxacin-susceptible and methicillin-resistant Staphylococcus epidermidis by CLSI M100-S18 method; assay type: functional
[32] = test system: Haemophilus influenzae; assay: Antibacterial activity against ciprofloxacin-susceptible Haemophilus influenzae assessed as percent susceptible isolates by CLSI M7-A7 method; assay type: functional
[33] = test system: Streptococcus oralis; assay: Antibacterial activity against Streptococcus oralis by CLSI M100-S18 method; assay type: functional
[34] = test system: Pseudomonas aeruginosa; assay: Antibacterial activity against non-ciprofloxacin-susceptible Pseudomonas aeruginosa by CLSI M7-A7 method; assay type: functional
[35] = test system: Stenotrophomonas maltophilia; assay: Antibacterial activity against non-levofloxacin susceptible Stenotrophomonas maltophilia by CLSI M7-A7 method; assay type: functional
[36] = test system: Serratia marcescens; assay: Antibacterial activity against levofloxacin susceptible Serratia marcescens assessed as percent susceptible isolates by CLSI M7-A7 method; assay type: functional
[37] = test system: Streptococcus anginosus; assay: Antibacterial activity against Streptococcus anginosus by CLSI M100-S18 method; assay type: functional
[38] = test system: Enterococcus faecalis; assay: Antibacterial activity against vancomycin- resistant Enterococcus faecalis by CLSI M100-S18 method; assay type: functional
[39] = test system: Klebsiella pneumoniae; assay: Antibacterial activity against Klebsiella pneumoniae by CLSI M7-A7 method; assay type: functional
[40] = test system: Staphylococcus lugdunensis; assay: Antibacterial activity against Staphylococcus lugdunensis by CLSI M100-S18 method; assay type: functional
[41] = test system: Staphylococcus hominis; assay: Antibacterial activity against Staphylococcus hominis assessed as percent susceptible isolates by CLSI M100-S18 method; assay type: functional
[42] = test system: Streptococcus pyogenes; assay: Antibacterial activity against Streptococcus pyogenes by CLSI M100-S18 method; assay type: functional
[43] = test system: Streptococcus equinus; assay: Antibacterial activity against Streptococcus bovis by CLSI M100-S18 method; assay type: functional
[44] = test system: Streptococcus pneumoniae; assay: Antibacterial activity against levofloxacin susceptible Streptococcus pneumoniae assessed as percent susceptible isolates by CLSI M100-S18 method; assay type: functional
[45] = test system: Proteus mirabilis; assay: Antibacterial activity against Proteus mirabilis by CLSI M7-A7 method; assay type: functional
[46] = test system: Enterobacter cloacae; assay: Antibacterial activity against Enterobacter cloacae by CLSI M7-A7 method; assay type: functional
[47] = test system: Klebsiella oxytoca; assay: Antibacterial activity against Klebsiella oxytoca by CLSI M7-A7 method; assay type: functional

## C[C@H]1COc2c(N3CCN(C)CC3)c(F)cc3c(=O)c(C(=O)O)cn1c23.C[C@H]1COc2c(N3CCN(C)CC3)c(F)cc3c(=O)c(C(=O)O)cn1c23.O [LEVOFLOXACIN]
[1]
  Activity: 91%
[2]
  Activity: 74%
[3]
  MIC50: 0.25 µg/mL
  MIC90: 0.5 µg/mL
[4]
  MIC: 4 µg/mL
[5]
  MIC: 0.5 µg/mL
  MIC50: 0.5 µg/mL
  MIC90: 0.5 µg/mL
[6]
  Activity: 100%
[7]
  MIC50: 0.015 µg/mL
  MIC90: 0.015 µg/mL
[8]
  MIC90: inactive
[9]
  MIC50: 8 µg/mL
[10]
  MIC50: 0.06 µg/mL
  MIC90: 8 µg/mL
[11]
  MIC50: 0.015 µg/mL
  MIC90: 0.015 µg/mL
[12]
  MIC50: 1 µg/mL
  MIC90: 4 µg/mL
[13]
  MIC50: 0.5 µg/mL
  MIC90: 1 µg/mL
[14]
  MIC50: 1 µg/mL
  MIC90: 4 µg/mL
[15]
  MIC50: 8 µg/mL
  MIC90: 64 µg/mL
[16]
  MIC50: 0.12 µg/mL
  MIC90: > 8 µg/mL
[17]
  MIC50: 4 µg/mL
  MIC90: > 8 µg/mL
[18]
  MIC50: 0.06 µg/mL
  MIC90: 16 µg/mL
[19]
  MIC50: 1 µg/mL
  MIC90: 4 µg/mL
[20]
  Activity: 100%
[21]
  Activity: 100%
[22]
  MIC50: 16 µg/mL
  MIC90: 16 µg/mL
[23]
  MIC50: 32 µg/mL
  MIC90: 128 µg/mL
[24]
  Activity: 76%
[25]
  Activity: 80%
[26]
  Activity: 37.6%
[27]
  MIC50: 0.5 µg/mL
  MIC90: 8 µg/mL
[28]
  Activity: 90%
[29]
  Activity: 0%
[30]
  MIC50: 0.12 µg/mL
  MIC90: 0.25 µg/mL
[31]
  MIC: 0.12 µg/mL
  MIC50: 0.12 µg/mL
[32]
  Activity: 100%
[33]
  MIC50: 1 µg/mL
  MIC90: 4 µg/mL
[34]
  MIC50: 16 µg/mL
  MIC90: 64 µg/mL
[35]
  MIC: 0.12 µg/mL
[36]
  Activity: 100%
[37]
  MIC50: 1 µg/mL
  MIC90: 1 µg/mL
[38]
  MIC50: 1 µg/mL
  MIC90: 64 µg/mL
[39]
  MIC50: 0.06 µg/mL
  MIC90: 2 µg/mL
[40]
  MIC50: 0.25 µg/mL
  MIC90: > 8 µg/mL
[41]
  Activity: 30%
[42]
  MIC50: 0.5 µg/mL
  MIC90: 0.5 µg/mL
[43]
  MIC50: 1 µg/mL
  MIC90: 4 µg/mL
[44]
  Activity: 100%
[45]
  MIC50: 0.03 µg/mL
  MIC90: 8 µg/mL
[46]
  MIC50: 0.03 µg/mL
  MIC90: 0.25 µg/mL
[47]
  MIC50: 0.03 µg/mL
  MIC90: 0.5 µg/mL
